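Tested at 5 concentrations; 48 h exposure; 96-well plates; endpoints linearly interpolated, else capped at highest concentration. At the TGI there is no net growth.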
Assays:
Test in all cases: NCI-60 cell line screen, 48 h
[1] = test system: 786-0 renal
[2] = test system: A498 renal
[3] = test system: A549 NSCLC
[4] = test system: ACHN renal
[5] = test system: BT-549 breast
[6] = test system: CAKI-1 renal
[7] = test system: CCRF-CEM leukemia
[8] = test system: COLO 205 colon
[9] = test system: DU-145 prostate
[10] = test system: EKVX NSCLC
[11] = test system: HCC-2998 colon
[12] = test system: HCT-116 colon
[13] = test system: HCT-15 colon
[14] = test system: HL-60(TB) leukemia
[15] = test system: HOP-62 NSCLC
[16] = test system: HOP-92 NSCLC
[17] = test system: HS 578T breast
[18] = test system: HT29 colon
[19] = test system: IGROV1 ovarian
[20] = test system: K-562 leukemia
[21] = test system: KM12 colon
[22] = test system: LOX IMVI melanoma
[23] = test system: M14 melanoma
[24] = test system: MALME-3M melanoma
[25] = test system: MCF7 breast
[26] = test system: MDA-MB-231 breast
[27] = test system: MDA-MB-435
[28] = test system: MDA-N
[29] = test system: MOLT-4 leukemia
[30] = test system: NCI-H23 lung
[31] = test system: NCI-H460 lung
[32] = test system: NCI-H522 lung
[33] = test system: NCI/ADR-RES ovarian
[34] = test system: OVCAR-3 ovarian
[35] = test system: OVCAR-4 ovarian
[36] = test system: OVCAR-5 ovarian
[37] = test system: OVCAR-8 ovarian
[38] = test system: PC-3 prostate
[39] = test system: RPMI-8226 leukemia
[40] = test system: RXF 393 renal
[41] = test system: SF-268 CNS
[42] = test system: SF-295 CNS
[43] = test system: SF-539 CNS
[44] = test system: SK-MEL-2 melanoma
[45] = test system: SK-MEL-28 melanoma
[46] = test system: SK-MEL-5 melanoma
[47] = test system: SN12C renal
[48] = test system: SNB-19 CNS
[49] = test system: SNB-75 CNS
[50] = test system: SW-620 colon
[51] = test system: T-47D breast
[52] = test system: TK-10 renal
[53] = test system: U251 CNS
[54] = test system: UACC-257 melanoma
[55] = test system: UACC-62 melanoma
[56] = test system: UO-31 renal
[57] = test system: NCI-H226 lung
[58] = test system: SK-OV-3 ovarian
[59] = test system: SR leukemia

O=C(NCCCCCCNCc1cccc2ccccc12)Nc1cccc2ccccc12
TGI [1]: > 100 µM | TGI [2]: > 100 µM | TGI [3]: > 100 µM | TGI [4]: > 100 µM | TGI [5]: > 100 µM | TGI [6]: > 100 µM | TGI [7]: > 100 µM | TGI [8]: > 100 µM | TGI [9]: > 100 µM | TGI [10]: > 100 µM | TGI [11]: > 100 µM | TGI [12]: > 100 µM | TGI [13]: > 100 µM | TGI [14]: > 100 µM | TGI [15]: > 100 µM | TGI [16]: > 100 µM | TGI [17]: > 100 µM | TGI [18]: > 100 µM | TGI [19]: > 100 µM | TGI [20]: > 100 µM | TGI [21]: > 100 µM | TGI [22]: > 100 µM | TGI [23]: > 100 µM | TGI [24]: > 100 µM | TGI [25]: > 100 µM | TGI [26]: > 100 µM | TGI [27]: > 100 µM | TGI [28]: > 100 µM | TGI [29]: > 100 µM | TGI [30]: > 100 µM | TGI [31]: > 100 µM | TGI [32]: > 100 µM | TGI [33]: > 100 µM | TGI [34]: > 100 µM | TGI [35]: > 100 µM | TGI [36]: > 100 µM | TGI [37]: > 100 µM | TGI [38]: > 100 µM | TGI [39]: > 100 µM | TGI [40]: > 100 µM | TGI [41]: > 100 µM | TGI [42]: > 100 µM | TGI [43]: > 100 µM | TGI [44]: > 100 µM | TGI [45]: > 100 µM | TGI [46]: > 100 µM | TGI [47]: > 100 µM | TGI [48]: > 100 µM | TGI [49]: > 100 µM | TGI [50]: > 100 µM | TGI [51]: > 100 µM | TGI [52]: > 100 µM | TGI [53]: > 100 µM | TGI [54]: > 100 µM | TGI [55]: > 100 µM | TGI [56]: > 100 µM

C[C@H](N)C(=O)Nc1ccc(-c2nc3ccccc3s2)cc1
TGI [1]: 29.1 µM | TGI [2]: 90 µM | TGI [3]: 29.6 µM | TGI [4]: 32.8 µM | TGI [5]: > 100 µM | TGI [6]: 36.3 µM | TGI [7]: 24.8 µM | TGI [8]: 33.1 µM | TGI [9]: 38.5 µM | TGI [10]: 26.8 µM | TGI [11]: 45.8 µM | TGI [12]: 28.5 µM | TGI [13]: 36.2 µM | TGI [15]: 72.9 µM | TGI [16]: 95.3 µM | TGI [17]: > 100 µM | TGI [18]: 38.2 µM | TGI [19]: 40.4 µM | TGI [20]: 37.6 µM | TGI [21]: 31.1 µM | TGI [22]: > 100 µM | TGI [23]: 24.1 µM | TGI [24]: 39.5 µM | TGI [26]: 36.5 µM | TGI [27]: 30.7 µM | TGI [28]: 38.4 µM | TGI [29]: 31.4 µM | TGI [57]: 97.8 µM | TGI [30]: > 100 µM | TGI [31]: 34.8 µM | TGI [32]: 48 µM | TGI [33]: > 100 µM | TGI [34]: 36.9 µM | TGI [35]: 36.6 µM | TGI [36]: 43.6 µM | TGI [37]: 66.8 µM | TGI [38]: 63.7 µM | TGI [40]: > 100 µM | TGI [41]: > 100 µM | TGI [42]: 33.9 µM | TGI [43]: 52.3 µM | TGI [44]: 99.4 µM | TGI [45]: 32.5 µM | TGI [46]: 43 µM | TGI [58]: 57.2 µM | TGI [47]: 56 µM | TGI [48]: 49.6 µM | TGI [49]: 41.6 µM | TGI [59]: 31.2 µM | TGI [50]: 31 µM | TGI [51]: 36 µM | TGI [52]: 60.8 µM | TGI [53]: 32.2 µM | TGI [54]: > 100 µM | TGI [55]: 35.4 µM | TGI [56]: 28.4 µM

Source: PubChem BioAssay (NCI)
